Here are results for nine molecules from PubChem BioAssay (NCI).

What all share (assay): growth of human tumour cells (NCI), 48 h
Assay [1] has as its system OVCAR-8 ovarian.
Assay [2] deals with MDA-MB-231 breast.
Assay [3] deals with NCI-H226 lung.
Assay [4] concerns NCI-H522 lung.
Assay [5] concerns SK-MEL-28 melanoma.
The subject of assay [6] is SNB-19 CNS.
The test system of assay [7] is U251 CNS.
The subject of assay [8] is OVCAR-3 ovarian.
Assay [9] relates to OVCAR-5 ovarian.
Assay [10] has as its system MALME-3M melanoma.

Each structure is given as a SMILES string. Where “and” joins values, the source holds several entries; their conditions need not be identical. Identical values can stand only once.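 Results reflect a 48-hour exposure of cells in 96-well plates to compound at five concentrations. The concentration for 50% growth inhibition is given as GI50. Definition used: TGI = concentration required for complete inhibition of growth.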

`O=NN(CCCl)C(=O)NC1CCCCC1`: the GI50 in assay [1] is 19.2 µM and 70.8 µM; in assay [3], 25.2 µM; in assay [4], 12.5 µM and 42.5 µM; in [5], 24.1 µM and 66.1 µM; in assay [7] it was 15.8 µM and 64.7 µM; in assay [8], 13.5 µM. In addition, the GI50 in [9] was 247 µM; in [10], 18 µM. For the same molecule, the TGI in assay [1] is 42 µM and 208 µM and 215 µM; in assay [2], 57 µM; in assay [3], 68.2 µM and 150 µM and 180 µM; in assay [4] it was 26.1 µM and 75.4 µM and 83.2 µM; in assay [5] it was 46.5 µM and 144 µM and 99.2 µM; in [6], 118 µM and 194 µM. The TGI in assay [7] was 51.2 µM and 103 µM and 173 µM; in assay [8] it was 34.5 µM and 142 µM; in [9], 168 µM and 363 µM; in assay [10], 37 µM and 150 µM and 112 µM.
As for `COc1cccc(C2C(C#N)=C(N)Oc3cc4c(cc32)OCO4)c1` (stereo unspecified), the GI50 is 0.0956 µM in assay [1]; 0.695 µM in assay [2]; 0.0455 µM in assay [3]; 0.0185 µM in assay [4]; 0.0813 µM in assay [5]; 0.0682 µM in [6]. Further, the GI50 was 0.0449 µM in [7], 0.0264 µM in assay [8], 0.661 µM in assay [9] and 0.0501 µM in [10]. Further, the TGI in assay [1] is greater than 36.2 µM; in assay [2] it was greater than 52.1 µM; in assay [3], 2.43 µM; in assay [4], 0.0715 µM; in assay [5] it was 32.6 µM; in [6], greater than 100 µM. Besides, the TGI was 12.1 µM in [7], 0.0661 µM in assay [8], greater than 100 µM in [9] and 31.4 µM in [10].
As to `C[C@]12CCC3=NCCN3C1=CC[C@@H]1[C@@H]2CC[C@@]2(C)[C@H]1CC[C@]2(C)O`, the TGI was greater than 100 µM in [1]; greater than 100 µM in assay [2]; 96.3 µM in assay [3]; greater than 100 µM in [4]; 99.6 µM in assay [5]; greater than 100 µM in [6]. For the same molecule, the TGI was greater than 100 µM in assay [7], greater than 100 µM in assay [8], greater than 100 µM in assay [9] and 53.5 µM in assay [10].
In the case of `CN(C)c1ccc(C2CC(C)(O)Oc3cc4c(cc32)OCO4)cc1` (stereo unspecified), the TGI in [1] was 94.7 µM; in assay [2] it was greater than 100 µM; in [3], greater than 100 µM; in assay [4], greater than 100 µM; in [5] it was greater than 100 µM; in assay [6], greater than 100 µM. The TGI in [7], in [8], in assay [9] and in assay [10] was greater than 100 µM in each case.
For `N#CCCN(CCC#N)c1ccc(C=Nc2ccc(F)cc2)cc1`, the TGI in assay [1], in assay [2], in assay [3], in [4], in [5] and in [6] was greater than 100 µM throughout. Besides, the TGI in assay [7], in assay [8], in assay [9] and in [10] was greater than 100 µM each time.
On to `O=C(OC[C@@H]1CO1)c1cccc2c(=O)c3ccccc3[nH]c12`, for which the GI50 in [1] is 0.166 µM; in [2] it was 0.393 µM; in assay [3], 0.301 µM; in [4], 0.421 µM; in [5], 0.396 µM; in [6], 0.505 µM. In addition, the GI50 in assay [7] was 0.279 µM; in [8], 0.276 µM; in [9], 0.474 µM; in assay [10], 0.472 µM. In addition, the TGI worked out at 2.78 µM in assay [1]; 2.29 µM in assay [2]; 1.48 µM in [3]; 2.2 µM in [4]; 2.07 µM in [5]; 5.51 µM in assay [6]. For the same molecule, the TGI worked out at 3.69 µM in assay [7], 1.14 µM in [8], 4.17 µM in assay [9] and 1.76 µM in assay [10].
Consider `COc1ccc(/C=C\c2cc(OC)c(OC)c(OC)c2)c(NS(=O)(=O)c2ccc(C(C)(C)C)cc2)c1O`, for which the GI50 in assay [1] is 0.44 µM; in assay [2], 0.358 µM; in assay [3], 0.546 µM; in [4], 0.213 µM; in [5], 4.91 µM; in assay [6], 0.56 µM. In addition, the GI50 in [7] is 0.597 µM; in assay [8], 0.225 µM; in assay [9] it was 0.626 µM; in assay [10], 12.5 µM. Also, the TGI in assay [1] is greater than 100 µM; in assay [2] it was 16.9 µM; in assay [3], 13.5 µM; in assay [4], 12.2 µM; in assay [5], 22.2 µM; in [6], 26.6 µM. The TGI in [7] worked out at 21.8 µM; in assay [8], 12 µM; in assay [9] it was 22.3 µM; in assay [10], 30.4 µM.
With `c1cncc(C2ONC3=NCCN32)c1` (stereo unspecified), the GI50 is 27.4 µM in assay [1]; 32.3 µM in assay [2]; 20 µM in [3]; 9.59 µM in assay [4]; greater than 100 µM in assay [5]; 69.7 µM in assay [6]. Besides, the GI50 in [7] is 16.5 µM; in assay [8], 2.86 µM; in assay [9], 58.3 µM; in assay [10], 5.17 µM. Moreover, the TGI in assay [1] was greater than 100 µM; in [2] it was greater than 100 µM; in assay [3], 68.7 µM; in assay [4] it was greater than 100 µM; in [5], greater than 100 µM; in assay [6], greater than 100 µM. For the same molecule, the TGI in assay [7] was 64.5 µM; in assay [8] it was 27.8 µM; in assay [9], greater than 100 µM; in assay [10] it was 91.4 µM.
As for `COc1cc(N(CCC#N)CCC#N)ccc1/C(N=Nc1ccc(C(=O)O)cc1)=N/NC(=O)c1cc(Br)ccc1O`, the GI50 in assay [1] was 50.6 µg/mL; in assay [2], 72.7 µg/mL; in assay [3] it was 53.2 µg/mL; in assay [4], 110 µg/mL; in [5], greater than 150 µg/mL; in assay [6], greater than 150 µg/mL. Besides, the values for the GI50 in [7], in assay [8] and in assay [10] were greater than 150 µg/mL, 65 µg/mL and greater than 150 µg/mL, respectively. Also, the TGI in [1], in assay [2], in assay [3], in [4], in [5] and in assay [6] was greater than 150 µg/mL each time. Moreover, the TGI in assay [7], in assay [8] and in assay [10] was greater than 150 µg/mL each time.
